Experimental data: patent publication US8795705B2, “Dermatologic compositions comprising pyrrolidone-5-carboxylic acid and at least one entity chosen from citrulline, arginine and asparagine, and uses thereof in the treatment of atopic dermatitis” (Galderma Research & Development, priority 2007, dated 2014)
Structures can show the parent of a compound that is named as a salt.

Experiment: Assessment of hygroscopic properties: residual water weight of solutions as a function of time in a thermal container
Format: physicochemical
Conditions: 50° C., humidity 30%, each compound at 5% in water, after 120 minutes, versus water as negative control (FIG. 1)
Description: Each compound was dissolved in water (w/w) to obtain a 5% solution. To prepare a 5% two-amino acid solution, the L-arginine powder was dissolved directly in the 5% PCA sodium salt solution (w/w). To assess the hygroscopic properties of amino acids, we studied the residual water weight of different solutions as a function of time. We determined the weight of residual water in each solution after different times in an atmosphere in which temperature and humidity were controlled in a thermal container (Vötsch VC0018). The temperature used for our assays was initially set at 50° C. and later at 30° C. to approximate skin conditions more closely. Humidity was set at 30%. Using these parameters, we determined the weight of each solution before heating it and at different times during the heating. The heating lasted for 120 minutes at 50° C. and data was recorded from 45 to 120 minutes. At 30° C. the heating lasted for 135 minutes and data was recorded from 90 to 135 minutes. The residual weight expected at the end of the study which corresponds to the weight of the compound in the solution was calculated (for example, if the initial total weight for a 5% solution was 100 mg, the weight of the compound was 5 mg). The residual water weight of each solution was obtained by subtracting the expected weight of the compound from the total weight of the solution at different times. […]

SMILES | percentage of residual water weight (evaporation of the water contained in the solutions)
O=C1CCC(C(=O)O)N1 (centres unmarked) [PCA Na, 2-Pyrrolidone-5-carboxylic acid sodium salt] | decreased the evaporation of the water
N=C(N)NCCC[C@H](N)C(=O)O [L-Arginine] | decreased the evaporation of the water
